Assay results published in ChEMBL document CHEMBL1201862, “PubChem BioAssay data set” (2004).
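Cultured in 96-well plates, cells were exposed to test compound for 48 hours across five concentrations. GI50 is the concentration that inhibits growth by half.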 Activity calls are given as the source filed them. Rule as the data show it: active = GI50 up to about 1.1 µM and inactive = higher.

Key:
Test in all cases: growth of human tumour cells (NCI), 48 h
NCI/ADR-RES = system: NCI/ADR-RES
SNB-78 = system: SNB-78
SK-OV-3 = system: SK-OV-3
SK-MEL-2 = system: SK-MEL-2
XF498 = system: XF498
HCT-116 = system: HCT-116
SW-620 = system: SW-620
MCF7 = system: MCF7
HCC 2998 = system: HCC 2998
DMS-114 = system: DMS-114
KM12 = system: KM12
NCI-H226 = system: NCI-H226
MOLT-4 = system: MOLT-4
OVCAR-5 = system: OVCAR-5
HOP-62 = system: HOP-62
SF-539 = system: SF-539
UACC-257 = system: UACC-257
SK-MEL-5 = system: SK-MEL-5
NCI-H460 = system: NCI-H460
M19-MEL = system: M19-MEL

| Compound | GI50 (NCI/ADR-RES) | GI50 (SNB-78) | GI50 (SK-OV-3) | GI50 (SK-MEL-2) | GI50 (XF498) | GI50 (HCT-116) | GI50 (SW-620) | GI50 (MCF7) | GI50 (HCC 2998) | GI50 (DMS-114) | GI50 (KM12) | GI50 (NCI-H226) | GI50 (MOLT-4) | GI50 (OVCAR-5) | GI50 (HOP-62) | GI50 (SF-539) | GI50 (UACC-257) | GI50 (SK-MEL-5) | GI50 (NCI-H460) | GI50 (M19-MEL) |
| --- | --- | --- | --- | --- | --- | --- | --- | --- | --- | --- | --- | --- | --- | --- | --- | --- | --- | --- | --- | --- |
| CCOC(=O)CNC(=O)N(CC)C12CC3CC(CC(C3)C1)C2 | 151 µM (inactive) | 166 µM (inactive) | 123 µM (inactive) | 103 µM (inactive) | 125 µM (inactive) | 121 µM (inactive) | 145 µM (inactive) | 148 µM (inactive) | 158 µM (inactive) | 107 µM (inactive) | 125 µM (inactive) | 146 µM (inactive) | 119 µM (inactive) | 161 µM (inactive) | 128 µM (inactive) | 123 µM (inactive) | 122 µM (inactive) | 104 µM (inactive) | 154 µM (inactive) | 153 µM (inactive) |
| O=C1c2cccc3cc4ccccc4c(c23)C(=O)N1CCNCCN1C(=O)c2cccc3cc4ccccc4c(c23)C1=O | 0.522 µM (active) | 0.518 µM (active) | 1.34 µM (inactive) | 1.58 µM (inactive) | 0.254 µM (active) | 0.415 µM (active) | 0.238 µM (active) | 0.282 µM (active) | 0.912 µM (active) | 0.23 µM (active) | 3.93 µM (inactive) | 2.21 µM (inactive) | 0.097 µM (active) | 0.406 µM (active) | 1.04 µM (active) | 0.773 µM (active) | 1.27 µM (inactive) | 0.504 µM (active) | 0.0541 µM (active) | 0.508 µM (active) |
| O=C(O)c1cccc2cccc(-c3c4ccc(=O)cc-4oc4cc(O)ccc34)c12 | > 100 µM (inactive) | – | 33.4 µM (inactive) | > 100 µM (inactive) | – | > 100 µM (inactive) | 49.7 µM (inactive) | > 100 µM (inactive) | > 100 µM (inactive) | – | > 100 µM (inactive) | – | 27.3 µM (inactive) | > 100 µM (inactive) | 16.4 µM (inactive) | > 100 µM (inactive) | > 100 µM (inactive) | > 100 µM (inactive) | > 100 µM (inactive) | – |
| O=C1Nc2ccc(S(=O)(=O)N(CCO)CCO)cc2/C1=C1/Nc2ccccc2C1=O | > 100 µM (inactive) | – | > 100 µM (inactive) | > 100 µM (inactive) | – | 51.6 µM (inactive) | > 100 µM (inactive) | 0.615 µM (active) | > 100 µM (inactive) | – | 17.7 µM (inactive) | > 100 µM (inactive) | 62.4 µM (inactive) | > 100 µM (inactive) | > 100 µM (inactive) | – | > 100 µM (inactive) | > 100 µM (inactive) | > 100 µM (inactive) | – |
| CC1OC(OC2C(OC(=O)[C@@H]3CC(C)(C)C[C@H]4C5=CC[C@@H]6[C@@]7(C)C[C@H](O)[C@H](OC8OC(CO)C(O)C(O)C8O)[C@@](C)(CO)[C@@H]7[C@H](O)C[C@@]6(C)[C@]5(C)CC[C@@]34C)OCC(O)C2O)C(O)C(O)C1O (stereo not given in full) | > 7.5 µM (inactive) | – | > 7.5 µM (inactive) | > 7.5 µM (inactive) | – | > 7.5 µM (inactive) | > 7.5 µM (inactive) | > 7.5 µM (inactive) | > 7.5 µM (inactive) | – | > 7.5 µM (inactive) | > 7.5 µM (inactive) | > 7.5 µM (inactive) | > 7.5 µM (inactive) | > 7.5 µM (inactive) | > 7.5 µM (inactive) | > 7.5 µM (inactive) | > 7.5 µM (inactive) | > 7.5 µM (inactive) | – |
| CSc1sc(=S)sc1SC | 25.7 µM (inactive) | > 100 µM (inactive) | > 100 µM (inactive) | > 31.6 µM (inactive) | > 100 µM (inactive) | > 100 µM (inactive) | > 100 µM (inactive) | > 100 µM (inactive) | > 100 µM (inactive) | > 100 µM (inactive) | > 100 µM (inactive) | > 100 µM (inactive) | > 100 µM (inactive) | > 100 µM (inactive) | > 100 µM (inactive) | > 100 µM (inactive) | > 100 µM (inactive) | > 100 µM (inactive) | > 100 µM (inactive) | > 100 µM (inactive) |
| C=CC(OCC)(OCC)OCC | – | > 100 µM (inactive) | > 100 µM (inactive) | > 100 µM (inactive) | > 100 µM (inactive) | 20.6 µM (inactive) | – | – | > 100 µM (inactive) | 15.6 µM (inactive) | > 100 µM (inactive) | > 100 µM (inactive) | > 100 µM (inactive) | > 100 µM (inactive) | > 100 µM (inactive) | > 100 µM (inactive) | > 100 µM (inactive) | > 100 µM (inactive) | > 100 µM (inactive) | > 100 µM (inactive) |
| CC1CC2C3CC(F)C4=CC(=O)C=CC4(C)C3(F)C(O)CC2(C)C1(O)C(=O)COC(=O)C(C)(C)C (stereo not given) | – | 27.5 µM (inactive) | – | > 100 µM (inactive) | > 100 µM (inactive) | > 100 µM (inactive) | > 100 µM (inactive) | – | > 100 µM (inactive) | > 100 µM (inactive) | > 100 µM (inactive) | > 100 µM (inactive) | 66.2 µM (inactive) | > 100 µM (inactive) | 75.7 µM (inactive) | 87.5 µM (inactive) | 57.9 µM (inactive) | > 100 µM (inactive) | 47 µM (inactive) | > 100 µM (inactive) |
| CC(=O)N/C(=C\c1ccc(/C=C(\NC(C)=O)C2=NC3C(=O)c4ccccc4C(=O)C3N2)cc1)C1=NC2C(=O)c3ccccc3C(=O)C2N1 (stereo not given) | – | 70.3 µM (inactive) | 6.53 µM (inactive) | – | > 100 µM (inactive) | 14.4 µM (inactive) | 1.84 µM (inactive) | – | – | 8 µM (inactive) | 3.63 µM (inactive) | 15.4 µM (inactive) | 2.44 µM (inactive) | 75 µM (inactive) | – | 76.7 µM (inactive) | > 100 µM (inactive) | 3.4 µM (inactive) | 12.8 µM (inactive) | 92.3 µM (inactive) |
| O=C1c2ccccc2C(=O)c2c1ccc1c2N=C(c2ccc(F)cc2)CC(c2ccc(Cl)c(Cl)c2)N1 (stereo not given) | – | 19.2 µM (inactive) | 12.7 µM (inactive) | 14 µM (inactive) | – | 11.5 µM (inactive) | 6.11 µM (inactive) | – | 13.6 µM (inactive) | 10.1 µM (inactive) | 6 µM (inactive) | 22.2 µM (inactive) | 7.43 µM (inactive) | 14.7 µM (inactive) | 22 µM (inactive) | 19.3 µM (inactive) | 23.7 µM (inactive) | 15.6 µM (inactive) | 16.9 µM (inactive) | 17.2 µM (inactive) |
| NC(=O)Nc1cc(O)ccc1/N=N/c1ccc(S(=O)(=O)Nc2ccccn2)cc1 | – | > 100 µM (inactive) | > 100 µM (inactive) | > 100 µM (inactive) | > 100 µM (inactive) | > 100 µM (inactive) | > 100 µM (inactive) | – | > 100 µM (inactive) | > 100 µM (inactive) | > 100 µM (inactive) | – | 5.9 µM (inactive) | > 100 µM (inactive) | > 100 µM (inactive) | > 100 µM (inactive) | > 100 µM (inactive) | > 100 µM (inactive) | > 100 µM (inactive) | > 100 µM (inactive) |
| COc1ccc(/C=C2\Oc3cc(OC(C)=O)ccc3C2=O)cc1 | > 100 µM (inactive) | – | > 100 µM (inactive) | – | – | > 100 µM (inactive) | > 100 µM (inactive) | > 100 µM (inactive) | > 100 µM (inactive) | – | > 100 µM (inactive) | > 100 µM (inactive) | > 100 µM (inactive) | – | > 100 µM (inactive) | > 100 µM (inactive) | > 100 µM (inactive) | > 100 µM (inactive) | > 100 µM (inactive) | – |
| COC(=O)C1=CC[C@@H]2C(C(=O)O)=CO[C@@H](OC3OC(CO)C(O)C(O)C3O)[C@H]12 (stereo not given in full) | > 300 µM (inactive) | > 142 µM (inactive) | > 300 µM (inactive) | > 300 µM (inactive) | > 228 µM (inactive) | > 300 µM (inactive) | > 300 µM (inactive) | > 114 µM (inactive) | > 110 µM (inactive) | > 300 µM (inactive) | > 300 µM (inactive) | 299 µM (inactive) | > 300 µM (inactive) | > 300 µM (inactive) | > 300 µM (inactive) | > 300 µM (inactive) | > 300 µM (inactive) | > 151 µM (inactive) | > 300 µM (inactive) | > 300 µM (inactive) |
| Cc1cc(NS(=O)(=O)c2ccc(Nc3c4ccccc4nc4c(C(=O)N5CCN(CCO)CC5)ccc(Cl)c34)cc2)no1 | – | – | > 100 µM (inactive) | 42.1 µM (inactive) | > 100 µM (inactive) | > 100 µM (inactive) | – | – | 71.8 µM (inactive) | > 100 µM (inactive) | > 100 µM (inactive) | > 100 µM (inactive) | 36.3 µM (inactive) | > 100 µM (inactive) | > 100 µM (inactive) | > 100 µM (inactive) | > 100 µM (inactive) | 36.3 µM (inactive) | > 100 µM (inactive) | > 100 µM (inactive) |
| COc1cc(OC)c(SSCCCCS(=O)O)c(OC)c1 | – | 12.1 µM (inactive) | 23.8 µM (inactive) | 19.5 µM (inactive) | 13.9 µM (inactive) | 16.3 µM (inactive) | 13.9 µM (inactive) | – | 20.1 µM (inactive) | 16.6 µM (inactive) | 14.9 µM (inactive) | – | 6.78 µM (inactive) | 16.6 µM (inactive) | 26.2 µM (inactive) | 16.1 µM (inactive) | 10.7 µM (inactive) | 10.4 µM (inactive) | 17.1 µM (inactive) | 7.52 µM (inactive) |
| O=C1/C(=C/c2ccc(Cl)cc2)CNC/C1=C\c1ccc(Cl)cc1 | 2.91 µM (inactive) | – | 12.1 µM (inactive) | – | – | 0.83 µM (active) | 0.638 µM (active) | 1.52 µM (inactive) | 1.57 µM (inactive) | – | 1.22 µM (inactive) | 2.44 µM (inactive) | 3.72 µM (inactive) | 4.79 µM (inactive) | 2.43 µM (inactive) | 1.15 µM (inactive) | – | 4.44 µM (inactive) | 1.35 µM (inactive) | – |
